# Laboratory results taken from patent US20230250393A1, “PRE-TREATING CARDIOMYOCYTES WITH ANTI-ARRHYTHMIC DRUGS TO REDUCE ENGRAFTMENT ARRHYTHMIA” (priority 2022, published 2023).
# Like-named read-outs stand apart in the source and are kept apart here. Marks after values point to notes of the source that are not given here.
# Experiments:
# [1] = tested on: engraftment arrhythmia (EA); details: for Effect on HR (heart rate) during EA / Effect: response on EA burden / Effect on rhythm: cardioversion / restoration of sinus rhythm: acute response, infarcted pigs with hESC-CM transplant in EA, dosages and routes as in Table 1; for Effect on EA heart rate and rhythm in the screen (overall): short-term intravenous infusion or oral treatment
# From the text: The objective of this study was to identify a pharmacological regimen to attenuate arrhythmias following cardiac remuscularization therapy. This study was designed in two phases: the first, to observe the natural history of EA and screen various antiarrhythmic agents for efficacy, and the second, to test for efficacy (FIG. 1). All subjects were 30-40 kg castrated male Yucatan minipigs between 6-13 months of age (S&S Farms). In Phase 1, nine subjects underwent cardiac remuscularization therapy with 500×10^6 hESC-CM delivered by direct surgical transepicardial injections or later, by percutaneous transendocardial injections. The first four subjects (one non-infarcted and three infarcted) were followed to learn the natural history of EA and establish clinical endpoints and parameters for the Phase 2 drug trial. The subsequent five subjects underwent systematic dosing with antiarrhythmic agents with continuous electrocardiography (ECG) monitoring to determine effect on rhythm and rate (Table 1).
# (§1) Telemetric ECG was continuously monitored in real-time from the time of myocardial infarction to detect the primary endpoint of cardiac death or unstable EA. Automated quantification of heart rate and arrhythmia burden was performed offline by a board-certified cardiologist using the ecgAUTO™ 3.3.5.10 software package (EMKA Technologies). Arrhythmia was defined as an ectopic beat (e.g. premature ventricular contraction) or rhythm (e.g. idioventricular rhythm, ventricular tachycardia). […] Heart rate and arrhythmia burden were quantified for two continuous minutes every five minutes (40% of total rhythm was counted) and presented as daily averages.
# Subjects were administered multiple trials antiarrhythmics and observed for acute response by continuous ECG monitoring. Intravenous agents were delivered as a bolus dose over 2 minutes. Oral agents were administrated by direct observation in a minimum of apples, apple sauce or pumpkin puree with daily feeding and dosed daily for dose escalation. A washout period of at least three days was provided between agents. Amiodarone was administered as the last agent for testing given concern for prolonged half-life and elimination kinetics. All agents were tested in at least two subjects.
# In Phase 1 of the study, the inventors screened six canonical antiarrhythmic agents broadly targeting sodium channels, potassium channels, and beta-adrenergic receptors: lidocaine (Ib, sodium channel inhibitor), flecainide (Ic, sodium channel inhibitor), propafenone (Ic, sodium channel inhibitor), amiodarone (III, potassium channel inhibitor), sotalol (III, potassium channel inhibitor) and metoprolol (β1-adrenergic receptor inhibitor) for effect on EA heart rate and rhythm. In addition, the funny current/HCN4 channel antagonist, ivabradine, was tested (Table 1). This series were not meant to be definitive but rather to rapidly identify the candidate agents.
# [2] = tested on: engraftment arrhythmia (EA); assay type: in vivo; details: chronic amiodarone
# Method: as §1
# Data are presented as mean±standard error of the mean (SEM).
# [3] = Amiodarone drug monitoring by liquid chromatography-mass spectrometry; assay type: in vivo; details: trough, within 1 week of discontinuation of chronic oral amiodarone, 6 pigs, mean ± SEM
# Method: FIG. 8 Plasma amiodarone levels in pigs. Amiodarone levels were measured in plasma by a custom liquid chromatography-mass spectrometry assay. Chronic oral amiodarone in six pigs was discontinued after achieving electrical maturation and stabilization of engraftment arrythmia. Serum through concentrations of amiodarone were assayed weekly including 3-4 weeks after discontinuation.
# A novel liquid chromatography—mass spectrometry assay was established for amiodarone to monitor steady state serum levels in the porcine model and guide oral dosing to ensure efficacy and avoid dose-related toxicity. A target serum level of 1.5-4.0 μg/ml was extrapolated from prior human pharmacokinetic studies (16,17). Elimination kinetics after discontinuation of oral amiodarone therapy were also studied by obtaining weekly trough concentrations in 6 pigs (subjects 6, 7, 8, 13, 14, 16) (FIG. 8).
SMILES,Effect on HR (heart rate) during EA [1],Effect: response on EA burden [1],Effect on EA heart rate and rhythm in the screen (overall) [1],Effect on rhythm: cardioversion / restoration of sinus rhythm [1],Effect on HR (heart rate) during EA ([1]; listed as ivabradine),Effect on rhythm: cardioversion / restoration of sinus rhythm ([1]; listed as ivabradine),"Adverse effects observed in screening ([1]; minipig, in vivo)","Burden of EA, chronic treatment (in words) [2]",Average serum amiodarone after discontinuation [3] [µg/mL]
"CC(C)NCC(O)c1ccc(NS(C)(=O)=O)cc1 (stereo not shown) [Sotalol, sotalol]",No response on HR,No response,no significant effect,,,,,,
"CCN(CC)CC(=O)Nc1c(C)cccc1C [Lidocaine, lidocaine]",Modest HR effect,,no significant effect,rare,,,,,
"COCCc1ccc(OCC(O)CNC(C)C)cc1 (stereo not shown) [Metoprolol, metoprolol]","Moderate HR effect (IV only),",no response on EA burden,no significant effect,,,,,,
"COc1cc2c(cc1OC)CC(=O)N(CCCN(C)C[C@H]1Cc3cc(OC)c(OC)cc31)CC2 [Ivabradine, ivabradine]",,"effect (PO only)**, no",,,robust dose-dependent effects on heart rate,did not restore sinus rhythm,**Severe bradycardia,,
"CCCCc1oc2ccccc2c1C(=O)c1cc(I)c(OCCN(CC)CC)c(I)c1 [Amiodarone, amiodarone]",Modest HR effect,,,,,,,reduced the burden of EA chronically,0.42 ± 0.12
"O=C(NCC1CCCCN1)c1cc(OCC(F)(F)F)ccc1OCC(F)(F)F (stereo not shown) [Flecainide, flecainide]",No response on HR,No response,no significant effect,,,,,,
